# Patent US20080253996A1, “Use of Sdf-1 for the Treatment and/or Prevention of Neurological Diseases” (LABORATORIES SERONO SA, priority 2005, published 2008)
# System: primary mixed cortical cultures stimulated with LPS
# Test: Cytokine release (TNF-α, IL-6) from LPS stimulated primary mixed cortical cultures
# Assay type: cell-based, mouse
# Protocol: Culturing of primary cells was performed as described (Lubetzki et al., 1993) using brain tissue from embryos isolated from NMRI mice at 16 days post-coitum. Cerebral hemispheres were dissected from embryo brains, dissociated via trypsin digestion and the single cell suspension was seeded at 5×10^4 cells in 50 μl myelination medium per well onto BioCoat® poly-L-lysine coated 96-well plates (356516, Becton Dickinson). The myelination medium consisted of Bottenstein-Sato medium (Bottenstein and Sato, 1979; Sadir et al., 2001), supplemented with 1% FCS, 1% penicillin-streptomycin solution (Seromed) and recombinant platelet-derived growth factor AA (PDGF-AA, R&D Systems) at 10 ng/mL.
# For testing the effects of SDF-1α and SDF-1α variant (as defined in SEQ ID NO: 4) on LPS stimulated cultures, cells were allowed to grow for two weeks. At day 14 cells were pre-incubated with increasing concentrations (0.001, 0.1 and 10 ng/ml) of the corresponding proteins into 25 μl of medium for three hours at 37° C. and 10% CO2. LPS was then supplemented to the cells at the concentration of 5 ng/ml into 25 μl of medium to obtain a final volume of 100 μl and incubated for 48 hours. Supernatants were collected at day 16 and the levels of TNF-α and IL-6 (the major cytokines released by activated microglia) were measured via specific ELISAs purchased from R&D systems (DuoSet mouse TNF-α ELISA DY410, mouse IL-6 ELISA DY406).
# Global analysis of the data was performed using one-way ANOVA. Dunnett's test was used further, and data were compared to the “untreated cells”. The level of significance was set at a: p<0.001; b or **: p<0.01; c or *: p<0.05; d: p<0.1. The results were expressed as mean ±standard error of the mean (s.e.m.).
# [1] = pre-incubation 3 h (SDF proteins 0.001, 0.1, 10 ng/ml; IL-10 10 ng/ml; dexamethasone 25 pM), then LPS 5 ng/ml 48 h, ELISA, compared to untreated cells
substance,measurement,setting,value
"SDF-1α: Human recombinant chemokine SDF-1α (SEQ ID NO: 1), produced in house, expressed in E. Coli cells",levels of IL-6 secretion,[1],significantly decreased
same,levels of TNF-α secretion,[1],significantly decreased
same,best concentration for decrease of TNF-α and IL-6 secretion,"tested 0.001, 0.1 and 10 ng/ml, LPS 5 ng/ml 48 h",10 ng/mL
